Results reported in patent US6380198B1 (Laboratoire Medidom S.A., priority 1997, dated 2002).
Several values for one entry are separate records, joined by “and”; a condition that tells them apart may be missing. Equal values may be shown once.

Experiments:
σ-1 receptors [1] = biological target: T1, σ-1 receptors (Oryctolagus cuniculus, UniProt G1SD54); test: [3H](+)-pentazocine receptor binding and competitive binding on irido-ciliary body membranes; design: species or system rabbit (New Zealand albino); conditions: 300 μg membrane protein, 37° C., 150 minutes
T1 construct: cell membranes obtained from the irido-ciliary body complex; from tissue; host or cells: rabbit irido-ciliary body, P2 membrane fraction
From the text: In order to identify the presence of a receptor sites in the eye the technique of “receptor binding” has been exploited. The latter has been carried out on cell membranes obtained from the irido-ciliary body complex. The irido-ciliary body complex had been explanted, after sacrifice, from male albino rabbits of the New Zealand strain. The tissue was homogenised in buffer and a fraction rich in cell membrane proteins was isolated, obtained by centrifugation. […] Aliquots of the said fraction of the homogenate containing 300 μg of total proteins were incubated with scalar amounts of [^3H](+)-pentazocine (which is used, for experimental purposes only, as a a ligand). The reaction was carried out at 37° C. for 150 minutes and then, after filtering, the radioactivity left on the filters was measured by liquid scintillation.

σ-1 receptors [2] = biological target: T1, σ-1 receptors; test: Inhibition of 3H(+)-N-allyl-nor-methazocine binding to irido-ciliary body membranes; design: species or system rabbit (New Zealand albino); conditions: rabbit irido-ciliary body P2 membranes, 300 μg protein, 37° C., 150 minutes, duplicate
Method: The receptor binding technique was carried out on cell membranes obtained from the irido-ciliary body complex explanted, after sacrifice, from male albino rabbits of the New Zealand strain (Charles River Italiana, of Calco (CO)). The tissue was homogenised in buffer and the P2, fraction, rich in cell membrane proteins, was isolated. […] The La total protein concentration was determined with the Lowry method.
The non specific binding was evaluated in presence of haloperidol.
All tests were carried out in duplicate. The reaction was maintained at 37° C. for 150 minutes, followed by filtration on WhatmannGF/B filters. The radioactivity left on the filters was measured by liquid scintillation spectrometry.

[3] = tested on: intraocular pressure of rabbits with ocular hypertension; test: Intraocular pressure in rabbits with ocular hypertension induced by α-chymotrypsin; format: in vivo, rabbit (Vienna Blue, pigmented); conditions: Table 5, hypertensive rabbits, 50 μl eye-drops: 0.050% flunarizine, 0.5% timolol, or flunarizine/beta-blocker combinations
Method: Rabbits of the same type as those described in the previous section were used for the following tests.
In the rabbit, the injection of this enzyme in the posterior chamber causes, after one month from the administration, an effect of ocular hypertension.
At the end of the quarantine period the rabbits were anaesthetised by intramuscular administration of ketamine hydrochloride and xylazine hydrochloride (RBI). The right eye was gently pushed outwardly after instilling 25 μl of Novesine® eye-drops, containing oxybuprocaine as an anaesthetic; then, a sterile solution of σ-chymotrypsin (SIGMA, Milan; 150 units in 100 μl of physiologic sterile solution) was injected in the posterior chamber of the right eye by means of a 30G sterile needle. After the administration of the enzyme, the eye was thoroughly washed with physiologic sterile solution in order to remove any traces of α-chymotrypsin which could damage the ocular tissues. Then, 2 drops of a commercial ophthalmic antibiotic solution (Colbiocin®, SIFI S.p.A., containing chloramphenicol, rolitetracycline, colistin methanesulphonate) were instilled. The treatment was carried out 3 times a day (at 8.00 a.m., 12.00 a.m. and 6.00 p.m.) for one week after the administration of α-chymotrypsin. The rabbits were employed in the tests after one month from the induction of ocular hypertension by means of the enzyme.
The rabbits, divided also in this case in groups of 4 animals, were treated by instillation of 50 μl of the product under test in the right conjunctival fornix.
The intraocular pressure in the treated eye was measured, according to the same procedure as in the previous tests, 15 minutes before the instillation of the eye-drops and 30, 60, 90, 120, 180 and 240 minutes after. The values obtained were statistically analysed according to the criteria mentioned in the foregoing.
The experimental conditions were exactly the same as before.

[4] = tested on: intraocular pressure of rabbits showing normal baseline intraocular pressure; test: Intraocular pressure in rabbits with normal intraocular pressure after topical instillation; format: in vivo, rabbit (Vienna Blue, pigmented); conditions: Table 2, 50 μl eye-drops: 0.050% flunarizine, 0.5% timolol, or flunarizine/beta-blocker combinations
Method: The effects of the agent of the invention on the intraocular pressure of rabbits showing normal baseline intraocular pressure were evaluated in comparison with the action of a placebo, and with that of various other calcium channel blocking agents. Female pigmented rabbits of the Vienna Blue strain were used (supplied by Charles River Italiana, of Calco (CO)). The age of the animals at the time of starting the experimentation was 9 weeks, and their weight was 2.0-2.5 kg.
The choice of a species with pigmented iris is due to the fact that the latter represents a reliable model for the evaluation of possible modifications of the intraocular pressure caused by the products under test. The strain chosen is genetically defined, so as to limit to a minimum the variability of the biological characteristics between one animal and the other.
The animals were kept in rooms maintained under constant and controlled conditions of temperature and humidity, illuminated for 12 hours a day with artificial light and with continuous renovation of the air. The feed consisted of a standard diet having a constant and known composition, and both feed and water were available ad libitum during the whole period of the test. The rabbits were stabled for 21 days before starting the test, so as to allow a sufficient acclimatation and to suitably evaluate the health conditions of the rabbits. Each experimental group consisted of 4 animals, which were allotted to the treatment groups in a randomised way.
Each different group of animals received, by instillation in the right conjunctival fornix, 50 μl of the following products:
The weight concentrations of the various agents under test are chosen so as to correspond to the same molar concentration.
The pressure in the treated eye was measured by flattening tonometer (TonopenXL®, Mentor), 15 minutes before the instillation of the eyerops (time 0) and then 30, 60, 90, 120, 180 and 240 minutes after. As a local anaesthetic, 5 minutes before carrying out each measurement 25 μl of a commercial ophthalmic solution containing 0.4% oxybuprocaine hydrochloride (Novesine®, Sandoz) was instilled. To carry out the measurement the rabbits were placed in a suitably designed cage, that prevents any sudden movement of the animal under test.
For each animal and at each of the times listed above the average of three subsequent measurements was calculated and recorded, each one said measurements being made after 1 minute from the previous one. The intraocular pressure values at the various times were compared with the values obtained before the treatment, by means of the Student's “t” test. The comparisons between different groups were made by processing the data by the variance analysis (ANOVA) and, where possible, by the Student's “t” test for the comparison of two different experimental groups. Values of p<0.05 were considered to be statistically significant.

[5] = average ± S.D. of 4 rabbits, 30 min after instillation
[6] = average ± S.D. of 4 rabbits, 60 min after instillation
[7] = average ± S.D. of 4 rabbits, 90 min after instillation
[8] = average ± S.D. of 4 rabbits, 120 min after instillation
[9] = average ± S.D. of 4 rabbits, 180 min after instillation
[10] = average ± S.D. of 4 rabbits, 240 min after instillation
[11] = average ± S.D. of 4 rabbits, time 0 = 15 min before instillation (baseline)
[12] = individual rabbit, right eye, 30 min after instillation
[13] = individual rabbit, right eye, 60 min after instillation
[14] = individual rabbit, right eye, 90 min after instillation
[15] = individual rabbit, right eye, 120 min after instillation
[16] = individual rabbit, right eye, 180 min after instillation
[17] = individual rabbit, right eye, 240 min after instillation
[18] = individual rabbit, right eye, time 0 = 15 min before instillation (baseline)

T1 sequence (G1SD54 1-223): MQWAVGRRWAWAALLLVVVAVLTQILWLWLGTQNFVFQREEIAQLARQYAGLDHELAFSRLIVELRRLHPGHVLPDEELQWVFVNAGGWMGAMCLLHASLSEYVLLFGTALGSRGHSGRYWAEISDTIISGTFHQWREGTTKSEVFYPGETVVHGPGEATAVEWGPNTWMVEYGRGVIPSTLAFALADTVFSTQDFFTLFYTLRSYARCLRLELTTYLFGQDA

## CC(C)=CCN1CC[C@]2(C)c3cc(O)ccc3C[C@H]1[C@H]2C [[^3H])(+)-pentazocine, [^3H](+)-pentazocine]
σ-1 receptors [1]
  Binding to receptor sites of the iridociliary body region: selectively binds to receptor sites

## COCCOC(=O)C1=C(C)NC(C)=C(C(=O)OC(C)C)C1c1cccc([N+](=O)[O-])c1 (stereo not drawn) [nimodipine]
σ-1 receptors [2]
  IC50: > 10 µM

## CC(C)(C)NC[C@H](O)COc1nsnc1N1CCOCC1 [timolol]
[3]; [5]
  Intraocular pressure (mmHg) at the time (min): 30, average ± S.D.: 41.7 ± 4.7 mmHg
[3]; [6]
  Intraocular pressure (mmHg) at the time (min): 60, average ± S.D.: 39.7 ± 2.9 mmHg
[3]; [7]
  Intraocular pressure (mmHg) at the time (min): 90, average ± S.D.: 39.7 ± 2.6 mmHg
[3]; [8]
  Intraocular pressure (mmHg) at the time (min): 120, average ± S.D.: 42.5 ± 3.5 mmHg
[3]; [9]
  Intraocular pressure (mmHg) at the time (min): 180, average ± S.D.: 46.0 ± 4.9 mmHg
[3]; [10]
  Intraocular pressure (mmHg) at the time (min): 240, average ± S.D.: 48.2 ± 4.4 mmHg
[3]; [11]
  Intraocular pressure (mmHg) at the time (min): 0, average ± S.D.: 49.0 ± 5.3 mmHg
[3]; [12]
  Intraocular pressure (mmHg) at the time (min): 30: 43 mmHg and 45 mmHg and 39 mmHg and 40 mmHg
[3]; [13]
  Intraocular pressure (mmHg) at the time (min): 60: 42 mmHg (2×) and 39 mmHg and 36 mmHg
[3]; [14]
  Intraocular pressure (mmHg) at the time (min): 90: 42 mmHg (2×) and 38 mmHg and 37 mmHg
[3]; [15]
  Intraocular pressure (mmHg) at the time (min): 120: 46 mmHg and 45 mmHg and 39 mmHg and 40 mmHg
[3]; [16]
  Intraocular pressure (mmHg) at the time (min): 180: 52 mmHg and 48 mmHg and 42 mmHg (2×)
[3]; [17]
  Intraocular pressure (mmHg) at the time (min): 240: 53 mmHg and 51 mmHg and 45 mmHg and 44 mmHg
[3]; [18]
  Intraocular pressure (mmHg) at the time (min): 0: 53 mmHg and 54 mmHg and 46 mmHg and 43 mmHg
[4]; [5]
  Intraocular pressure (mmHg) at the time (min): 30, average ± S.D.: 14.7 ± 0.5 mmHg
[4]; [6]
  Intraocular pressure (mmHg) at the time (min): 60, average ± S.D.: 13.5 ± 0.6 mmHg
[4]; [7]
  Intraocular pressure (mmHg) at the time (min): 90, average ± S.D.: 14.5 ± 0.6 mmHg
[4]; [8]
  Intraocular pressure (mmHg) at the time (min): 120, average ± S.D.: 15.5 ± 0.6 mmHg
[4]; [9]
  Intraocular pressure (mmHg) at the time (min): 180, average ± S.D.: 16.0 ± 0.6 mmHg
[4]; [10]
  Intraocular pressure (mmHg) at the time (min): 240, average ± S.D.: 16.0 ± 0.8 mmHg
[4]; [11]
  Intraocular pressure (mmHg) at the time (min): 0, average ± S.D.: 15.7 ± 0.5 mmHg
[4]; [12]
  Intraocular pressure (mmHg) at the time (min): 30: 15 mmHg (3×) and 14 mmHg
[4]; [13]
  Intraocular pressure (mmHg) at the time (min): 60: 14 mmHg (2×) and 13 mmHg (2×)
[4]; [14]
  Intraocular pressure (mmHg) at the time (min): 90: 14 mmHg (2×) and 15 mmHg (2×)
[4]; [15]
  Intraocular pressure (mmHg) at the time (min): 120: 15 mmHg (2×) and 16 mmHg (2×)
[4]; [16]
  Intraocular pressure (mmHg) at the time (min): 180: 16 mmHg (2×) and 17 mmHg and 15 mmHg
[4]; [17]
  Intraocular pressure (mmHg) at the time (min): 240: 16 mmHg (2×) and 17 mmHg and 15 mmHg
[4]; [18]
  Intraocular pressure (mmHg) at the time (min): 0: 16 mmHg (3×) and 15 mmHg
